Where two headings read alike, the source gives them in different places.
Tests used:
[1] = test system: H929 cells; test: Cell viability assay (H929 10 FBS); format: cell-based; conditions: Homo sapiens, NCI-H929, 24 hours, read-out: H929_10FBS IC50
In short: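 ATP-based luminescence (CellTiter-Glo or ATPlite 1 Step, 30-60 min at RT) gauged viability of H929 myeloma cells after 24 h compound treatment at 37 °C. Cells plated at 4000 per well in 10% FBS RPMI 1640 supplemented with pyruvate, HEPES and glucose.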

[2] = molecular target: MCL-1 (Homo sapiens (Human), UniProt Q07820); test: Cell free Mcl-1:Bim affinity assay (fluorescence polarization competition); format: binding; conditions: 15 nM MCL-1, 5 nM FITC-Bim, 1 hour at room temperature, read-out: BIM_Ki
MCL-1, sequence (Q07820 whole entry): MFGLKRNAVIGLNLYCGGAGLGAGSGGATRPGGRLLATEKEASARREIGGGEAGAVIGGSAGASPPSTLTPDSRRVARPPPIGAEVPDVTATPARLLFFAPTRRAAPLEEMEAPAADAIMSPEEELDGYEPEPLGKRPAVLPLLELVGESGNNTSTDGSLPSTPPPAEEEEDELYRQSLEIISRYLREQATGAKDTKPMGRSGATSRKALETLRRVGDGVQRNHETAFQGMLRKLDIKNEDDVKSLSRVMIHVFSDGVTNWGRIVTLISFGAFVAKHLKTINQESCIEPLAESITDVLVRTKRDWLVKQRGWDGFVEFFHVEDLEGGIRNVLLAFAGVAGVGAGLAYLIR
In short: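 Fluorescence polarization competition: 10-point 3-fold compound dilutions displaced 5 nM FITC-Bim from 15 nM MCL-1 over 1 h at room temperature. Ki was derived from the fitted IC50 using the Nikolovska-Coleska equation, with percent inhibition normalized to DMSO and positive controls.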

SMILES: COC[C@@H]1CCCN1C(=O)O[C@H]1/C=C/COC(C)(C)C(=O)NS(=O)(=O)c2ccc3c(c2)N(C[C@@H]2CC[C@H]21)C[C@@]1(CCCc2cc(Cl)ccc21)CO3 [Example 160, [(3R,6R,7S,8E,22S)-6′-Chloro-12,12-dimethyl-13,15,15-trioxo-spiro[11,20-dioxa-15-thia-1,14-diazatetracyclo[14.7.2.03,6.019,24]pentacosa-8,16,18,24-tetraene-22,1′-tetralin]-7-yl] (2S)-2-(methoxymethyl)pyrrolidine-1-carboxylate]
- IC50 [1]: < 500 nM
- Ki ([2]; class symbols): < 1 nM

SMILES: CN(C)C(=O)O[C@H]1/C=C/COC(C)(C)C(=O)NS(=O)(=O)c2ccc3c(c2)N(C[C@@H]2CC[C@H]21)C[C@@]1(CCOc2cc(Cl)ccc21)CO3 [Example 247, [(3R,6R,7S,8E,22S)-7′-Chloro-12,12-dimethyl-135,5-trioxo-spiro[11,20-dioxa-15-thia-1,14-diazatetracyclo[14.7.2.03,6.019,24]pentacosa-8,16,18,24-tetraene-22,4′-chromane]-7-yl] N,N-dimethylcarbamate]
- IC50 [1]: < 500 nM
- Ki ([2]; class symbols): < 1 nM

SMILES: CO[C@H]1/C=C/CCCC(=O)NS(=O)(=O)c2ccc3c(c2)N(C[C@@H]2CC[C@H]21)C[C@@]1(CCCc2cc(Cl)ccc21)CO3 [Example 80, (3R,6R,7S,8E,22S)-6′-Chloro-7-methoxy-15,15-dioxo-spiro[20-oxa-15-thia-1,14-diazatetracyclo[14.7.2.03,6.019,24]pentacosa-8,16(25),17,19(24)-tetraene-22,1′-tetralin]-13-one]
- IC50 [1]: > 1000 nM
- Ki ([2]; class symbols): 1 to 100 nM

SMILES: CN1C/C=C/[C@H](OC(=O)NCC2CC2)[C@@H]2CC[C@H]2CN2C[C@@]3(CCCc4cc(Cl)ccc43)COc3ccc(cc32)S(=O)(=O)NC(=O)C1(C)C [Example 205, [(3R,6R,7S,8E,22S)-6′-Chloro-11,12,12-trimethyl-13,15,15-trioxo-spiro[20-oxa-15-thia-1,11,14-triazatetracyclo[14.7.2.03,6.019,24]pentacosa-8,16,18,24-tetraene-22,1′-tetralin]-7-yl] N-(cyclopropylmethyl)carbamate]
- IC50 [1]: < 500 nM
- Ki ([2]; class symbols): 1 to 100 nM

SMILES: CN(C)C(=O)CO[C@H]1/C=C/COC2(CC2)C(=O)NS(=O)(=O)c2ccc3c(c2)N(C[C@@H]2CC[C@H]21)C[C@@]1(CCCc2cc(Cl)ccc21)CO3 [Example 142, 2-[(3R,6R,7S,8E,22S)-6′-Chloro-12,12-ethylene-13,15,15-trioxo-spiro[11,20-dioxa-15-thia-1,14-diazatetracyclo[14.7.2.03,6.019,24]pentacosa-8,16,18,24-tetraene-22,1′-tetralin]-7-yl]oxy-N,N-dimethyl-acetamide]
- IC50 [1]: < 1000 nM
- Ki ([2]; class symbols): < 1 nM

SMILES: CC1(C)OC/C=C/[C@H](OC(=O)NC2CCOCC2)[C@@H]2CC[C@H]2CN2C[C@@]3(CCCc4cc(Cl)ccc43)COc3ccc(cc32)S(=O)(=O)NC1=O [Example 185, [(3R,6R,7S,8E,22S)-6′-Chloro-12,12-dimethyl-13,15,15-trioxo-spiro[11,20-dioxa-15-thia-1,14-diazatetracyclo[14.7.2.03,6.019,24]pentacosa-8,16,18,24-tetraene-22,1′-tetralin]-7-yl] N-tetrahydropyran-4-ylcarbamate]
- IC50 [1]: < 500 nM
- Ki ([2]; class symbols): < 1 nM

SMILES: O=C1Cc2cc(OCCN3CCOCC3)cc(c2)OC[C@@H]2CC[C@H]2CN2C[C@@]3(CCCc4cc(Cl)ccc43)COc3ccc(cc32)S(=O)(=O)N1 [Example 105, (3R,6R,24S)-6′-Chloro-11-(2-morpholinoethoxy)-17,17-dioxo-spiro[8,22-dioxa-17-thia-1,16-diazapentacyclo[16.7.2.19,13.03,6.021,26]octacosa-9(28),10,12,18(27),19,21(26)-hexaene-24,1′-tetralin]-15-one]
- IC50 [1]: > 1000 nM
- Ki ([2]; class symbols): 1 to 100 nM

SMILES: CO[C@@H]1/C=C/CCCCC(=O)NS(=O)(=O)c2ccc3c(c2)N(C[C@@H]2CC[C@H]21)C[C@@]1(CCCc2cc(Cl)ccc21)CO3 [Example 73, (3R,6R,7R,8E,23S)-6′-Chloro-7-methoxy-16,16-dioxo-spiro[21-oxa-16-thia-1,15-diazatetracyclo[15.7.2.03,6.020,25]hexacosa-8,17,19,25-tetraene-23,1′-tetralin]-14-one]
- IC50 [1]: > 1000 nM
- Ki ([2]; class symbols): 1 to 100 nM

SMILES: Cc1cc(CC(=O)NS(=O)(=O)c2ccc3c(c2)N(CC2CCC2)C[C@@]2(CCCc4cc(Cl)ccc42)CO3)nn1C [Example 15, 2-(1,5-Dimethylpyrazol-3-yl)-N-[(3S)-6′-chloro-5-(cyclobutylmethyl)spiro[2,4-dihydro-1,5-benzoxazepine-3,1′-tetralin]-7-yl]sulfonyl-acetamide]
- IC50 [1]: > 1000 nM
- Ki ([2]; numeric values): 8.7 nM

SMILES: C[C@H]1CN(C(=O)O[C@H]2/C=C/COC(C)(C)C(=O)NS(=O)(=O)c3ccc4c(c3)N(C[C@@H]3CC[C@H]32)C[C@@]2(CCCc3cc(Cl)ccc32)CO4)CCN1 [Example 176, [(3R,6R,7S,8E,22S)-6′-Chloro-12,12-dimethyl-13,15,15-trioxo-spiro[11,20-dioxa-15-thia-1,14-diazatetracyclo[14.7.2.03,6.019,24]pentacosa-8,16,18,24-tetraene-22,1′-tetralin]-7-yl] (3S)-3-methylpiperazine-1-carboxylate]
- IC50 [1]: < 500 nM
- Ki ([2]; class symbols): < 1 nM

SMILES: CC1(C)OC/C=C/[C@H](OC(=O)NC2COC2)[C@@H]2CC[C@H]2CN2C[C@@]3(CCCc4cc(Cl)ccc43)COc3ccc(cc32)S(=O)(=O)NC1=O [Example 192, [(3R,6R,7S,8E,22S)-6′-Chloro-12,12-dimethyl-13,15,15-trioxo-spiro[11,20-dioxa-15-thia-1,14-diazatetracyclo[14.7.2.03,6.019,24]pentacosa-8,16,18,24-tetraene-22,1′-tetralin]-7-yl] N-(oxetan-3-yl)carbamate]
- IC50 [1]: < 500 nM
- Ki ([2]; class symbols): < 1 nM

SMILES: CO[C@@H]1/C=C/C[C@H](C)[C@@H](C)C(=O)NS(=O)(=O)c2ccc3c(c2)N(C[C@@H]2CC[C@H]21)C[C@@]1(CCCc2cc(Cl)ccc21)CO3 [Example 78, (3R,6R,7R,8E,1S,12R,22S)-6′-Chloro-7-methoxy-11,12-dimethyl-15,15-dioxo-spiro[20-oxa-15-thia-1,14-diazatetracyclo[14.7.2.03,6.019,24]pentacosa-8,16,18,24-tetraene-22,1′-tetralin]-13-one]
- IC50 [1]: > 1000 nM
- Ki ([2]; class symbols): 1 to 100 nM

SMILES: CN(C(=O)O[C@H]1/C=C/COC2(CCC2)C(=O)NS(=O)(=O)c2ccc3c(c2)N(C[C@@H]2CC[C@H]21)C[C@@]1(CCCc2cc(Cl)ccc21)CO3)C1CCOCC1 [Example 236, [(3R,6R,7S,8E,22S)-6′-Chloro-12,12-(1,3-propylene)-13,15,15-trioxo-spiro[11,20-dioxa-15-thia-1,14-diazatetracyclo[14.7.2.03,6.019,24]pentacosa-8,16,18,24-tetraene-22,1′-tetralin]-7-yl] N-methyl-N-tetrahydropyran-4-yl-carbamate]
- IC50 [1]: < 500 nM
- Ki ([2]; class symbols): < 1 nM

SMILES: CCO[C@H]1CCN(C(=O)O[C@H]2/C=C/COC(C)(C)C(=O)NS(=O)(=O)c3ccc4c(c3)N(C[C@@H]3CC[C@H]32)C[C@@]2(CCCc3cc(Cl)ccc32)CO4)C1 [Example 162, [(3R,6R,7S,8E,22S)-6′-Chloro-12,12-dimethyl-13,15,15-trioxo-spiro[11,20-dioxa-15-thia-1,14-diazatetracyclo[14.7.2.03,6.019,24]pentacosa-8,16,18,24-tetraene-22,1′-tetralin]-7-yl] (3S)-3-ethoxypyrrolidine-1-carboxylate]
- IC50 [1]: < 500 nM
- Ki ([2]; class symbols): < 1 nM

SMILES: CN(C)C(=O)O[C@H]1/C=C/CNC(C)(C)C(=O)NS(=O)(=O)c2ccc3c(c2)N(C[C@@H]2CC[C@H]21)C[C@@]1(CCCc2cc(Cl)ccc21)CO3 [Example 209, [(3R,6R,7S,8E,22S)-6′-Chloro-12,12-dimethyl-13,15,15-trioxo-spiro[20-oxa-15-thia-1,11,14-triazatetracyclo[14.7.2.03,6.019,24]pentacosa-8,16,18,24-tetraene-22,1′-tetralin]-7-yl] N,N-dimethylcarbamate]
- IC50 [1]: < 500 nM
- Ki ([2]; class symbols): < 1 nM

SMILES: O=C(Cc1ccccc1)NS(=O)(=O)c1ccc2c(c1)N(CC1CCC1)CC1(CCCc3cc(Cl)ccc31)CO2 (stereo not drawn) [Example 5, N-[6′-Chloro-5-(cyclobutylmethyl)spiro[2,4-dihydro-1,5-benzoxazepine-3,1′-tetralin]-7-yl]sulfonyl-2-phenyl-acetamide]
- IC50 [1]: > 1000 nM
- Ki ([2]; numeric values): 37.3 nM

SMILES: CO[C@@H]1/C=C/CN(C)C(C)(C)C(=O)NS(=O)(=O)c2ccc3c(c2)N(C[C@@H]2CC[C@H]21)C[C@@]1(CCCc2cc(Cl)ccc21)CO3 [Example 42, (3R,6R,7R,8E,22S)-6′-Chloro-7-methoxy-11,12,12-trimethyl-15,15-dioxo-spiro[20-oxa-15-thia-1,11,14-triazatetracyclo[14.7.2.03,6.019,24]pentacosa-8,16,18,24-tetraene-22,1′-tetralin]-13-one]
- IC50 [1]: < 500 nM
- Ki ([2]; class symbols): 1 to 100 nM

SMILES: CO[C@@H]1/C=C/CCC(=O)NS(=O)(=O)c2ccc3c(c2)N(C[C@@H]2CC[C@H]21)C[C@@]1(CCCc2cc(Cl)ccc21)CO3 [Example 74, (3R,6R,7R,8E,21S)-6′-Chloro-7-methoxy-14,14-dioxo-spiro[19-oxa-14-thia-1,13-diazatetracyclo[13.7.2.03,6.018,23]tetracosa-8,15,17,23-tetraene-21,1′-tetralin]-12-one]
- IC50 [1]: > 1000 nM
- Ki ([2]; class symbols): < 1 nM
